Experimental data taken from publication PMC9743598, “OR2AT4 and OR1A2 counterregulate molecular pathophysiological processes of steroid-resistant inflammatory lung diseases in human alveolar macrophages” (Molecular Medicine, 2022).

Target: T1, OR2AT4 (Homo sapiens, UniProt A6NND4)
T1 construct: endogenous full-length receptor in primary human alveolar macrophages from bronchoalveolar lavage; estimated 34 kDa, blot signal about 40 kDa
T1 sequence (A6NND4 1-320): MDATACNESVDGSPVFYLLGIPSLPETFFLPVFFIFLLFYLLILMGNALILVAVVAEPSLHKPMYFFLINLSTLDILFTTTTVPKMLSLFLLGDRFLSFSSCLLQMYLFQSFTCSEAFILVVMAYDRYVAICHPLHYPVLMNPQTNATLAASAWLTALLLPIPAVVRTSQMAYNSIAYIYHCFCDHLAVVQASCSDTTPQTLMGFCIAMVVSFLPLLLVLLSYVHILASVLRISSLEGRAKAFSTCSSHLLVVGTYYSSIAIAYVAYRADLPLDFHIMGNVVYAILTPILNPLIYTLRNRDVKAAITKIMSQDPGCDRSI
Assay: Fura-2 single-cell calcium imaging, primary human alveolar macrophages
Format: cell-based
Conditions: agonist; endogenous receptor in native cells; Ringer solution

## CC1=CCC(CCC(C)C(C)O)C1(C)C (stereo not shown) [Sandalore]
  EC50: 190 µM
